Source: patent US7786107B2, “Modulators of muscarinic receptors” (Vertex Pharmaceuticals Incorporated, priority 2006, dated 2010)

Columns and labels:
M1 muscarinic receptor = biological target: T1, M1 muscarinic receptor (Homo sapiens, UniProt P11229); experiment: Functional mobilization of intracellular calcium (FLIPR) in CHO cells expressing M1; format: cell-based; conditions: for EC50: CHO cells expressing M1, calcium mobilization; for Emax: CHO, 100% efficacy is the maximum response obtained with the Carbachol control
T1 construct: expressed in transfected cells; host or cells: CHO
T1 sequence (P11229 1-460): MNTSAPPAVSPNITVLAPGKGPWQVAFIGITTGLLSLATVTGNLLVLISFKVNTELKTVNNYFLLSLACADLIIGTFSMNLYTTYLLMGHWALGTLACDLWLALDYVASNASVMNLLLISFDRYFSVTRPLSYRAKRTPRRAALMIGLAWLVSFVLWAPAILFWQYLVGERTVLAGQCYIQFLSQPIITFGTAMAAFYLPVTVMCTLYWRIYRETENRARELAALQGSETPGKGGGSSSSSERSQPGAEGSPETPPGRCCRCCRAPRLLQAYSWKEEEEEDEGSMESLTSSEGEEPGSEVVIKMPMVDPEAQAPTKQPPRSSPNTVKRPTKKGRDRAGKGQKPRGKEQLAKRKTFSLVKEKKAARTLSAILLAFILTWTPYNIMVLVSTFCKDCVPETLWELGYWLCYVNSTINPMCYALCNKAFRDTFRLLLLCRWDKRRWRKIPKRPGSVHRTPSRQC
Procedure: (§1) Functional Mobilization of Intracellular Calcium to Determine Muscarinic Receptor Activity:
(§2) CHO cells expressing muscarinic receptors (M1 to M5) are grown as monolayers in tissue culture flasks at 37° C. in a humidified atmosphere containing 5% CO2 and passaged every 3-5 days. The growth media is Dulbecco's modified eagles medium (DMEM, Gibco Cat#12430-054), containing 25 mM Hepes and supplemented with Fetal Bovine Serum (Hyclone, Cat#SH30071.03), 0.1 mM of MEM non-essential amino acids (GIBCO, Cat#11140-050), 1 mM MEM Sodium Pyruvate (GIBCO Cat#11360-070) and 100 units/ml of Penicillin G and 100 μg/ml of Streptomycin (GIBCO Cat#15140-122). The recombinant muscarinic receptor cell lines are grown under antibiotic pressure with media containing 25 μg/ml zeocin and 500 μg/ml G418 (MI-CHO), 4 μg/ml puromycin, 50 μg/ml zeocin and 2.5 μg/ml blasticidin (M2 and M4-CHO) or 50 μg/ml zeocin and 4 μg/ml puromycin (M3 and M5-CHO).
(§3) Cells are harvested at 80-90% confluence using Versene (GIBCO Cat#15040-066), collected by centrifugation and seeded 18-24 hours prior to running the calcium assay at a density of 5,000-10,000 cells/well in […], clear-bottomed 384-well plates (BD Biocoat, poly-D-lysine, Cat#356663). The day of the experiment, the cells are washed with a plate washer (Bioteck Instruments, ELX 405) using bath 1 buffer (140-mM NaCl, 4.5-mM KCl, 2-mM CaCl2, 1-mM MgCl2, 10-mM Hepes-Na, 10-mM Glucose, pH 7.4, with NaOH) containing 1 mM Probenecid. Next, the calcium dye Fluo-3 (25 μl well of Fluo-3 AM at 4 μM, Molecular Probes F-1241, in Bath 1 buffer containing 1 mM Probenecid) is added to the 25 μl of Bath 1 remaining in each well after the plate wash and the dye is loaded at 37° C. in the tissue culture incubator for 60-90 min. The fluorescent dye is removed using the plate washer with Bath 1 containing 1 mM Probenecid, leaving 25 μl/well of this solution after the wash. Alternatively, cells can be loaded with the calcium indicator from Molecular Devices (Calcium 3 Assay Reagents, Cat #R7181) adding 5 μl of a 5× solution dye in Bath 1 containing 1 mM Probenecid (10 ml per dye flask cat#R7182 to generate a solution 20×) to 20 μl of the same buffer. After loading for 60 min, the experiment can be run without having to remove the dye.
(§4) Compounds are prepared at a 2× fold concentration in a 96-well plate (round bottom, Costar Corning cat#3656), by reconstituting the pre-spotted compounds in bath 1 containing 1 mM probenecid. The final concentration DMSO is 0.5%, and the amount of DMSO is normalized across the assay plate. To determine an agonist action of the compounds on muscarinic receptors, the reconstituted compounds are added (25 μl compound/well) to the cell assay plate (containing 25 μl/well) using the multi-channel robotic system of the FLIPR 3 Instrument (Molecular Devices, Sunnyvale, Calif.). To determine a functional inhibitory action of the compounds on muscarinic receptors, the reconstituted compounds are added (25 μl compound/well) to the assay plate and pre-incubated for 15 min prior to adding 25 μl of Carbachol at 3× the EC80 for each muscarinic subtype. Alternatively, the compounds can be co-applied simultaneously with the agonist. In both assay modes, the fluorescence is recorded for 60 sec (excitation wavelength is […] and emission wavelength 540 nm) using the FLIPR 3 instrument.
(§5) The potency, efficacy and selectivity of the muscarinic compounds were evaluated by screening the compound activity across the whole family (M1 to M5 cells). Compounds were also screened for activity on other proteins such as other GPCRs and ion channels to determine selectivity on M4 receptors.
(§6) Examples of activities and efficacies of the muscarinic compounds of formulae (I, I-A, and I-B) on modulating M1 and M4 receptors are shown below in Table 4. […]

M4 muscarinic receptor = biological target: T2, M4 muscarinic receptor (Homo sapiens, UniProt P08173); experiment: Functional mobilization of intracellular calcium (FLIPR) in CHO cells expressing M4; format: cell-based; conditions: for EC50: CHO cells expressing M4, calcium mobilization; for Emax: CHO, 100% efficacy is the maximum response obtained with the Carbachol control
T2 construct: expressed in transfected cells; host or cells: CHO
T2 sequence (P08173 1-479): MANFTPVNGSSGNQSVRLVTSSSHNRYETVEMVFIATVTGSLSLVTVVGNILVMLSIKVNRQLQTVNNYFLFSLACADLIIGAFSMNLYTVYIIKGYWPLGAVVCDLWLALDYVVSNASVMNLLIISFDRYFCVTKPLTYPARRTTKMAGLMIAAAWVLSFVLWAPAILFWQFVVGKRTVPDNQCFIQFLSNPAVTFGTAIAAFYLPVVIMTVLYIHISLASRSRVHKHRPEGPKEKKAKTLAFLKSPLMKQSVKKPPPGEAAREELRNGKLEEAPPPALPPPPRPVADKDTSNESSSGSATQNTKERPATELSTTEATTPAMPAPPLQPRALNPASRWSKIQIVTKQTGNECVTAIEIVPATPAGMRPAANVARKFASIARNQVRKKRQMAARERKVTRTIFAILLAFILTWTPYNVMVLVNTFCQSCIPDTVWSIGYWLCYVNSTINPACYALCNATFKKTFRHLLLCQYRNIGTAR
Procedure: as §1, §2, §3, §4, §5, §6

SMILES | EC50 (M1 muscarinic receptor) [nM] | Emax (M1 muscarinic receptor) [%] | EC50 (M4 muscarinic receptor) [nM] | Emax (M4 muscarinic receptor) [%]
O=C1CCC2(CCN(C3C[C@@H]4CC[C@@H]3C4)CC2)c2ccccc2N1 (some centres unmarked) [Compound 1] | < 2000 | > 100 | < 2000 | 25 to 100
NC(=O)N1CCCC2(CCN(CC3CC4C=CC3C4)CC2)c2ccccc21 (centres unmarked) [Compound 2] | 2000 to 10000 | < 25 | < 2000 | 25 to 100
CN1C(=O)CCC2(CCN(CCC(C)(C)C)CC2)c2ccccc21 [Compound 3] | 2000 to 10000 | 25 to 100 | < 2000 | 25 to 100
CCOC(=O)N1C2CCC1CC(N1CCC3(CCC(=O)Nc4ccccc43)CC1)C2 (centres unmarked) [Compound 4] | < 2000 | 25 to 100 | < 2000 | 25 to 100
O=C1CCC2(CCN(CC3CC4C=CC3C4)CC2)c2ccccc2N1 (centres unmarked) [Compound 5] | 2000 to 10000 | 25 to 100 | < 2000 | 25 to 100
NC(=O)N1CCCC2(CCN(C3CCCCCC3)CC2)c2ccccc21 [Compound 6] | > 10000 | < 25 | > 10000 | < 25
CC(=O)N1CCCC2(CCN(CC3CCCCC3)CC2)c2ccccc21 [Compound 7] | > 10000 | < 25 | 2000 to 10000 | < 25
CCOC(=O)N1CCC(N2CCC3(CCCN(C(N)=O)c4ccccc43)CC2)CC1 [Compound 8] | < 2000 | 25 to 100 | 2000 to 10000 | 25 to 100
CC(=O)N1CCCC2(CCN(CC3CC4C=CC3C4)CC2)c2ccccc21 (centres unmarked) [Compound 9] | > 10000 | < 25 | < 2000 | 25 to 100
CCOC(=O)N1C2CCC1CC(N1CCC3(CCCN(C(=O)N(C)C)c4ccccc43)CC1)C2 (centres unmarked) [Compound 10] | > 10000 | < 25 | 2000 to 10000 | < 25
CN(C)C(=O)N1CCCC2(CCN(C3CCCCCC3)CC2)c2ccccc21 [Compound 11] | > 10000 | < 25 | > 10000 | < 25
CN1C(=O)CCC2(CCN(C3CCCCCC3)CC2)c2ccccc21 [Compound 12] | 2000 to 10000 | 25 to 100 | < 2000 | 25 to 100
CC(C)(C)CCN1CCC2(CCCN(C(N)=O)c3ccccc32)CC1 [Compound 13] | 2000 to 10000 | 25 to 100 | < 2000 | 25 to 100
CCOC(=O)N1CCC(N2CCC3(CCCN(C(C)=O)c4ccccc43)CC2)CC1 [Compound 14] | < 2000 | 25 to 100 | < 2000 | 25 to 100
CN(C)C(=O)N1CCCC2(CCN(CC3CC4C=CC3C4)CC2)c2ccccc21 (centres unmarked) [Compound 15] | > 10000 | < 25 | < 2000 | 25 to 100
NC(=O)N1CCCC2(CCN(C3CC4CCC(C4)C3)CC2)c2ccccc21 (centres unmarked) [Compound 16] | 2000 to 10000 | 25 to 100 | < 2000 | 25 to 100
CC(=O)N1CCCC2(CCN(C3C[C@@H]4CC[C@@H]3C4)CC2)c2ccccc21 (some centres unmarked) [Compound 17] | > 10000 | < 25 | > 10000 | < 25
CCOC(=O)N1CCC(N2CCC3(CCC(=O)Nc4ccccc43)CC2)CC1 [Compound 18] | < 2000 | 25 to 100 | < 2000 | 25 to 100
CN1C(=O)CCC2(CCN(C3CC4CCC(C4)C3)CC2)c2ccccc21 (centres unmarked) [Compound 19, 1′-(bicyclo[3.2.1.]octan-3-yl)-1-methyl-3,4-dihydrospiro[benzo[b]azepine-5,4′-piperidin]-2(1H)-one] | < 2000 | 25 to 100 | < 2000 | 25 to 100
NC(=O)N1CCCC2(CCN(CC3CCCCC3)CC2)c2ccccc21 [Compound 20] | > 10000 | < 25 | 2000 to 10000 | < 25
CCOC(=O)N1CCC(N2CCC3(CCC(=O)N(C)c4ccccc43)CC2)CC1 [Compound 21] | 2000 to 10000 | 25 to 100 | 2000 to 10000 | 25 to 100
CCOC(=O)N1C2CCC1CC(N1CCC3(CCCN(C(N)=O)c4ccccc43)CC1)C2 (centres unmarked) [Compound 22] | < 2000 | 25 to 100 | < 2000 | 25 to 100
CCOC(=O)N1CCC(N2CCC3(CCCN(C(=O)N(C)C)c4ccccc43)CC2)CC1 [Compound 23] | 2000 to 10000 | 25 to 100 | < 2000 | 25 to 100
O=C1CCC2(CCN(C3CCCCCC3)CC2)c2ccccc2N1 [Compound 24, 1′-cycloheptyl-3,4-dihydrospiro[benzo[b]azepine-5,4′-piperidin]-2(1H)-one] | < 2000 | 25 to 100 | < 2000 | 25 to 100
CN(C)C(=O)N1CCCC2(CCN(C3CC4CCC(C4)C3)CC2)c2ccccc21 (centres unmarked) [Compound 25] | > 10000 | < 25 | < 2000 | 25 to 100
NC(=O)N1CCCC2(CCN(C3C[C@@H]4CC[C@@H]3C4)CC2)c2ccccc21 (some centres unmarked) [Compound 26] | > 10000 | < 25 | > 10000 | < 25
CN(C)C(=O)N1CCCC2(CCN(CC3CCCCC3)CC2)c2ccccc21 [Compound 27] | > 10000 | < 25 | > 10000 | < 25
CCOC(=O)N1C2CCC1CC(N1CCC3(CCCN(C(C)=O)c4ccccc43)CC1)C2 (centres unmarked) [Compound 28] | < 2000 | 25 to 100 | < 2000 | 25 to 100
O=C1CCC2(CCN(C3CC4CCC(C4)C3)CC2)c2ccccc2N1 (centres unmarked) [Compound 29] | < 2000 | 25 to 100 | < 2000 | 25 to 100
